Test results as given in patent US20170333509A1, “MAILLARD REACTION PRODUCT-DECOMPOSING AGENT” (ARKRAY, Inc., priority 2016, published 2017).

Experiments:
[1] = tested on: AGEs modified bovine serum albumin (AGE-BSA) cross-linked to collagen; test: AGEs Cross-Link Breaking Effect Confirmatory Test 2 (AGE-BSA cross-linked to collagen-coated microplate, ELISA); assay type: biochemical; conditions: cross-link breaking reaction at 37° C. for 18 hours
Protocol: The test was carried out according to the description in Sara Vasan et al. (Nature, 382, pp 275-278 (1996)).
300 μL/well of SuperBlock T20 (PBS) Blocking Buffer was added to a commercially available 96-well microplate precoated with collagen, which then was reacted at 37° C. for one hour. After the reaction, it was washed with 0.05% polyethylene (20) sorbitan monolaurate (Tween 20)/PBS(−), and then AGEs modified bovine serum albumin (AGE-BSA) was added to each well of the microplate, which then was subjected to a crosslinking reaction at 37° C. for four hours. After the reaction, it was washed with Tween 20/PBS(−). Thereafter, a plant extract was added to each well and thereby it was subjected to a cross-link breaking (cleaving) reaction at 37° C. for 18 hours. After that, it was washed with Tween 20/PBS(−) and a primary antibody (anti-albumin bovine serum rabbit-polyclonal) was added thereto, which then was reacted at room temperature for 30 minutes. […] As a reaction stop solution, 1N HCl was added thereto, and the absorbance at 450 nm (dominant wavelength)/630 nm (complementary wavelength) was measured with a microplate reader. The amount of AGE-BSA that remained was determined from a calibration curve in which the amount of AGE-BSA was varied. Furthermore, the AGE-BSA decomposition rate (Collagen cross-link decomposition rate) was determined using the following formula. […]

[2] = AGEs Cross-Link Breaking Effect Confirmatory Test 1 (benzoic acid from PPD by reverse-phase HPLC); assay type: biochemical; conditions: plant extract (hot water, 80° C.) or 10 mmol/L PTB : 10 mmol/L PPD : 0.2 mol/L phosphate buffer pH 7.4 = 5:1:4, 37° C., eight hours, n=3
Protocol: The test was carried out according to the description in […] al. (Nature, 382, pp 275-278 (1996)). […] A plant extract, 10 mmol/L of PPD, and 0.2 mol/L of phosphate buffer solution (pH 7.4) were mixed together at a ratio of 5:1:4 and then were reacted at 37° C. for eight hours (n=3). After completion of the reaction, hydrochloric acid was added thereto to stop the reaction. […] The amount of benzoic acid contained in the reaction solution was determined by subtracting the amount of benzoic acid contained in the sample, which was measured separately. Since 1 mol of PPD produces 1 mol of benzoic acid, the cross-link breaking rate was calculated by the following formula. Cross-link breaking rate (%)={(A-B)/C}×100 A: The amount of benzoic acid contained in the reaction solution B: The amount of benzoic acid contained in the sample C: The amount of PPD provided for the reaction (the amount of the substrate) As a control, a test was carried out using 10 mmol/L of PTB instead of the plant extract.

Compound	Collagen Cross-Link Decomposition Rate (%) (AGE-BSA decomposition rate) [1]	Amount of Remaining AGE-BSA ([1]; absorbance 450 nm/630 nm, calibration curve)	Cross-Link Breaking Rate (%) (Mean Value ± Standard Deviation) [2]
O=C1O[C@H]2[C@@H]3OC(=O)c4cc(O)c(O)c(O)c4-c4c(O)c(O)c5oc(=O)c6c(c(O)c(O)c7oc(=O)c4c5c76)-c4c(cc(O)c(O)c4O)C(=O)OC[C@H]3OC(O)[C@@H]2OC(=O)c2cc(O)c(O)c(O)c2-c2c1cc(O)c(O)c2O (mixture of isomers) [Punicalagin, punicalagin]	65.7%	343.3 ng	
O=C(C[n+]1ccsc1)c1ccccc1.[Br-] [PTB, N-phenacylthiazolium bromide]			20.47 ± 0.29%
